Experimental findings from PubChem BioAssay (NCI) are described below.

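96-well plates; 48 h exposure; 5 concentrations. Endpoints by linear interpolation between flanking doses. Not reached: highest tested concentration assigned. TGI marks complete inhibition of growth.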

The test system of the first assay is SF-295 CNS. The assay is described as follows: inhibition of tumour cell growth, NCI panel, 48 h.
Compound `O=C(Nc1nccs1)c1c(O)nc2sccn2c1=O` returned a TGI of more than 10 µM.

The test system of a further assay is SF-539 CNS. Briefly: inhibition of tumour cell growth, NCI panel, 48 h.
The compound `COc1cc(C2c3cc4c(cc3OC(C)(O)C2C)OCO4)cc(OC)c1OC` (stereo not drawn) had a TGI of 0.888 µM.

In turn, `COC(=O)C1=C(C)NC(C)=C(C(=O)OCCCN2CCC(c3ccccc3)(c3ccccc3)CC2)C1c1cccc([N+](=O)[O-])c1` (stereo not drawn) registered a TGI of 3.27 µM.

In the case of `CC1=NN(c2cccc(Cl)c2)C2(SCC(=O)N2c2nc3ccccc3s2)/C1=C\c1ccccc1O` (stereo not drawn), the TGI is more than 100 µM.

On to `O=C(Nc1nccs1)c1c(O)nc2sccn2c1=O`, for which the TGI was more than 10 µM.

The subject of another assay is SK-MEL-2 melanoma. Briefly: inhibition of tumour cell growth, NCI panel, 48 h.
As for `COC(=O)C1=C(C)NC(C)=C(C(=O)OCCCN2CCC(c3ccccc3)(c3ccccc3)CC2)C1c1cccc([N+](=O)[O-])c1` (stereo not drawn), the TGI amounted to 4.74 µM.

`CC1=NN(c2cccc(Cl)c2)C2(SCC(=O)N2c2nc3ccccc3s2)/C1=C\c1ccccc1O` (stereo not drawn): the TGI is 44.2 µM.

In turn, `O=C(Nc1nccs1)c1c(O)nc2sccn2c1=O` showed a TGI of more than 10 µM.

A further assay has as its system SK-MEL-28 melanoma. The assay is described as follows: inhibition of tumour cell growth, NCI panel, 48 h.
For the compound `COC(=O)C1=C(C)NC(C)=C(C(=O)OCCCN2CCC(c3ccccc3)(c3ccccc3)CC2)C1c1cccc([N+](=O)[O-])c1` (stereo not drawn), the TGI came out at 3.39 µM.

Turning to `CC1=NN(c2cccc(Cl)c2)C2(SCC(=O)N2c2nc3ccccc3s2)/C1=C\c1ccccc1O` (stereo not drawn), the TGI was more than 100 µM.

Compound `O=C(Nc1nccs1)c1c(O)nc2sccn2c1=O` showed a TGI of more than 10 µM.

A further assay concerns SK-MEL-5 melanoma. The assay is described as follows: inhibition of tumour cell growth, NCI panel, 48 h.
In turn, `COc1cc(C2c3cc4c(cc3OC(C)(O)C2C)OCO4)cc(OC)c1OC` (stereo not drawn) came in with a TGI of 2.36 µM.

Compound `COC(=O)C1=C(C)NC(C)=C(C(=O)OCCCN2CCC(c3ccccc3)(c3ccccc3)CC2)C1c1cccc([N+](=O)[O-])c1` (stereo not drawn) registered a TGI of 3.16 µM.

The compound `CC1=NN(c2cccc(Cl)c2)C2(SCC(=O)N2c2nc3ccccc3s2)/C1=C\c1ccccc1O` (stereo not drawn) came in with a TGI of 32.3 µM.

With `O=C(Nc1nccs1)c1c(O)nc2sccn2c1=O`, the TGI was more than 10 µM.

The subject of the next assay is SK-OV-3 ovarian. The assay is described as follows: inhibition of tumour cell growth, NCI panel, 48 h.
In the case of `COC(=O)C1=C(C)NC(C)=C(C(=O)OCCCN2CCC(c3ccccc3)(c3ccccc3)CC2)C1c1cccc([N+](=O)[O-])c1` (stereo not drawn), the TGI came out at 12.9 µM.

On to `CC1=NN(c2cccc(Cl)c2)C2(SCC(=O)N2c2nc3ccccc3s2)/C1=C\c1ccccc1O` (stereo not drawn), for which the TGI was found to be 51.3 µM.

In turn, `O=C(Nc1nccs1)c1c(O)nc2sccn2c1=O` came in with a TGI of more than 10 µM.

For a further assay, the system named is SN12C renal. The assay is described as follows: inhibition of tumour cell growth, NCI panel, 48 h.
Take `COc1cc(C2c3cc4c(cc3OC(C)(O)C2C)OCO4)cc(OC)c1OC` (stereo not drawn): the TGI is more than 100 µM.

Compound `COC(=O)C1=C(C)NC(C)=C(C(=O)OCCCN2CCC(c3ccccc3)(c3ccccc3)CC2)C1c1cccc([N+](=O)[O-])c1` (stereo not drawn) had a TGI of 2.99 µM.

On to `O=C(Nc1nccs1)c1c(O)nc2sccn2c1=O`, for which the TGI was more than 10 µM.

The next assay concerns SNB-19 CNS. The assay is described as follows: inhibition of tumour cell growth, NCI panel, 48 h.
In turn, `COc1cc(C2c3cc4c(cc3OC(C)(O)C2C)OCO4)cc(OC)c1OC` (stereo not drawn) gave a TGI of more than 100 µM.

`COC(=O)C1=C(C)NC(C)=C(C(=O)OCCCN2CCC(c3ccccc3)(c3ccccc3)CC2)C1c1cccc([N+](=O)[O-])c1` (stereo not drawn) showed a TGI of 3.24 µM.

As for `O=C(Nc1nccs1)c1c(O)nc2sccn2c1=O`, the TGI is more than 10 µM.

The test system of the next assay is SNB-75 CNS. The assay is described as follows: inhibition of tumour cell growth, NCI panel, 48 h.
Consider `COC(=O)C1=C(C)NC(C)=C(C(=O)OCCCN2CCC(c3ccccc3)(c3ccccc3)CC2)C1c1cccc([N+](=O)[O-])c1` (stereo not drawn), for which the TGI came out at 9.84 µM.

For `O=C(Nc1nccs1)c1c(O)nc2sccn2c1=O`, the TGI is more than 10 µM.

The subject of a further assay is SR leukemia. The assay is described as follows: inhibition of tumour cell growth, NCI panel, 48 h.
`COc1cc(C2c3cc4c(cc3OC(C)(O)C2C)OCO4)cc(OC)c1OC` (stereo not drawn) came in with a TGI of 14.2 µM.

`COC(=O)C1=C(C)NC(C)=C(C(=O)OCCCN2CCC(c3ccccc3)(c3ccccc3)CC2)C1c1cccc([N+](=O)[O-])c1` (stereo not drawn) yielded a TGI of 4.5 µM.

Compound `CC1=NN(c2cccc(Cl)c2)C2(SCC(=O)N2c2nc3ccccc3s2)/C1=C\c1ccccc1O` (stereo not drawn) registered a TGI of 37.5 µM.

The compound `O=C(Nc1nccs1)c1c(O)nc2sccn2c1=O` had a TGI of more than 10 µM.

The next assay deals with SW-620 colon. The assay is described as follows: inhibition of tumour cell growth, NCI panel, 48 h.
Compound `COc1cc(C2c3cc4c(cc3OC(C)(O)C2C)OCO4)cc(OC)c1OC` (stereo not drawn) registered a TGI of more than 100 µM.

`COC(=O)C1=C(C)NC(C)=C(C(=O)OCCCN2CCC(c3ccccc3)(c3ccccc3)CC2)C1c1cccc([N+](=O)[O-])c1` (stereo not drawn) came in with a TGI of 3.75 µM.

With `CC1=NN(c2cccc(Cl)c2)C2(SCC(=O)N2c2nc3ccccc3s2)/C1=C\c1ccccc1O` (stereo not drawn), the TGI worked out at 35.8 µM.

As to `O=C(Nc1nccs1)c1c(O)nc2sccn2c1=O`, the TGI is more than 10 µM.

The next assay deals with T-47D breast. The assay is described as follows: inhibition of tumour cell growth, NCI panel, 48 h.
Compound `COC(=O)C1=C(C)NC(C)=C(C(=O)OCCCN2CCC(c3ccccc3)(c3ccccc3)CC2)C1c1cccc([N+](=O)[O-])c1` (stereo not drawn) registered a TGI of 30.2 µM.

`CC1=NN(c2cccc(Cl)c2)C2(SCC(=O)N2c2nc3ccccc3s2)/C1=C\c1ccccc1O` (stereo not drawn) registered a TGI of 37.9 µM.

Regarding `O=C(Nc1nccs1)c1c(O)nc2sccn2c1=O`, the TGI is more than 10 µM.

The subject of a further assay is TK-10 renal. Briefly: inhibition of tumour cell growth, NCI panel, 48 h.
The compound `COC(=O)C1=C(C)NC(C)=C(C(=O)OCCCN2CCC(c3ccccc3)(c3ccccc3)CC2)C1c1cccc([N+](=O)[O-])c1` (stereo not drawn) yielded a TGI of 7.34 µM.

`CC1=NN(c2cccc(Cl)c2)C2(SCC(=O)N2c2nc3ccccc3s2)/C1=C\c1ccccc1O` (stereo not drawn) gave a TGI of more than 100 µM.

On to `O=C(Nc1nccs1)c1c(O)nc2sccn2c1=O`, for which the TGI was more than 10 µM.

In the next assay the test system is U251 CNS. Briefly: inhibition of tumour cell growth, NCI panel, 48 h.
Compound `COc1cc(C2c3cc4c(cc3OC(C)(O)C2C)OCO4)cc(OC)c1OC` (stereo not drawn) gave a TGI of more than 100 µM.

In turn, `COC(=O)C1=C(C)NC(C)=C(C(=O)OCCCN2CCC(c3ccccc3)(c3ccccc3)CC2)C1c1cccc([N+](=O)[O-])c1` (stereo not drawn) gave a TGI of 3.21 µM.

As to `CC1=NN(c2cccc(Cl)c2)C2(SCC(=O)N2c2nc3ccccc3s2)/C1=C\c1ccccc1O` (stereo not drawn), the TGI came to 53.5 µM.

As for `O=C(Nc1nccs1)c1c(O)nc2sccn2c1=O`, the TGI was more than 10 µM.

The next assay concerns UACC-257 melanoma. The assay is described as follows: inhibition of tumour cell growth, NCI panel, 48 h.
The compound `COc1cc(C2c3cc4c(cc3OC(C)(O)C2C)OCO4)cc(OC)c1OC` (stereo not drawn) registered a TGI of more than 100 µM.

`COC(=O)C1=C(C)NC(C)=C(C(=O)OCCCN2CCC(c3ccccc3)(c3ccccc3)CC2)C1c1cccc([N+](=O)[O-])c1` (stereo not drawn) displayed a TGI of 3.1 µM.

In the case of `CC1=NN(c2cccc(Cl)c2)C2(SCC(=O)N2c2nc3ccccc3s2)/C1=C\c1ccccc1O` (stereo not drawn), the TGI is more than 100 µM.

Another assay relates to UACC-62 melanoma. The assay is described as follows: inhibition of tumour cell growth, NCI panel, 48 h.
As for `COC(=O)C1=C(C)NC(C)=C(C(=O)OCCCN2CCC(c3ccccc3)(c3ccccc3)CC2)C1c1cccc([N+](=O)[O-])c1` (stereo not drawn), the TGI is 3.24 µM.

As for `O=C(Nc1nccs1)c1c(O)nc2sccn2c1=O`, the TGI was more than 10 µM.

The subject of a further assay is UO-31 renal. Briefly: inhibition of tumour cell growth, NCI panel, 48 h.
For `COc1cc(C2c3cc4c(cc3OC(C)(O)C2C)OCO4)cc(OC)c1OC` (stereo not drawn), the TGI turned out to be 81.5 µM.

`COC(=O)C1=C(C)NC(C)=C(C(=O)OCCCN2CCC(c3ccccc3)(c3ccccc3)CC2)C1c1cccc([N+](=O)[O-])c1` (stereo not drawn) showed a TGI of 3.89 µM.

`CC1=NN(c2cccc(Cl)c2)C2(SCC(=O)N2c2nc3ccccc3s2)/C1=C\c1ccccc1O` (stereo not drawn) displayed a TGI of 38.5 µM.

`O=C(Nc1nccs1)c1c(O)nc2sccn2c1=O` gave a TGI of more than 10 µM.
